According to US20260042769A1, “TRIARYL AGONISTS OF ALPHA-2 ADRENERGIC RECEPTORS” (ALCEPTOR THERAPEUTICS, INC., priority 2023, published 2026):

target: T1, human ADRA2B receptor (Homo sapiens, UniProt P18089); assay: GTPγS agonist assay, ADRA2B receptor; type: biochemical; details: read-out: GTPase - Human Alpha2B EC50
T1 construct: expressed in transfected cells
T1 sequence (P18089 1-450): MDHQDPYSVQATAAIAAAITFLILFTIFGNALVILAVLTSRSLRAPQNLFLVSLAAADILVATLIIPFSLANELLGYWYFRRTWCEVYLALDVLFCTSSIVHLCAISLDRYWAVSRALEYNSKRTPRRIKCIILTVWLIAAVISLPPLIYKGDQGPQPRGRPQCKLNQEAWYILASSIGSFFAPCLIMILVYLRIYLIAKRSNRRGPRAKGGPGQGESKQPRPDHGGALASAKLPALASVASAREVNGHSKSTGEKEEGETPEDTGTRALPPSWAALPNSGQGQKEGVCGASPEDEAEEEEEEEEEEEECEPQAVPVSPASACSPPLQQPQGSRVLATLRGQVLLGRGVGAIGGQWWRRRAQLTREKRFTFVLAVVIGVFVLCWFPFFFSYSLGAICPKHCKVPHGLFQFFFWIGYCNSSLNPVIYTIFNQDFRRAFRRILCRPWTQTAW
Procedure: GTP ? S Agonist Assays (ADRA2A, ADRA2B, and ADRA2C Receptors)
Membranes were prepared for GTP ? S binding assays from CHO-K1 cells stably expressing human ADRA2A, ADRA2B, or ADRA2C receptor. Briefly, cells were grown in 5-layer cell culture flasks. Cells were washed with 50 mL of PBS and then dissociated with 0.05% trypsin. Dissociated cells were then collected by centrifugation at 650×g for 8 min at 4° C. Pellets were washed again in PBS by centrifugation and resuspended in 30 mL of 20 mM HEPES, 10 mM EDTA, pH 7.4. After sitting on ice for 30 min, membranes were collected by centrifugation at 50000×g for 15 min at 4° C., resuspended in 30 mL of 20 mM HEPES, 0.1 mM EDTA, pH 7.4 and collected again by centrifugation. Pellets were then washed twice by centrifugation in 30 mL of 20 mM HEPES, pH 7.4, and stored at −80° C. until the day of the assay. On the day of the assay, pellets were thawed on ice and resuspended in 1 mL of 20 mM HEPES, pH 7.4, 10 mM MgCl2, 100 mM NaCl using dounce homogenization. Membrane protein concentration was determined by BCA protein assay (Promega, Madison, WI) according to Promega guidelines.
On the day of the assay, serial dilutions of test compounds were brought up in assay buffer (20 mM HEPES, 10 mM MgCl2, 200 mM NaCl) at 10× final assay concentration. 50 μL/well of membrane homogenates (containing 5 μg of membrane protein for ADRA2A, ADRA2B, or 7.5 μg for ADRA2C) were prepared in assay buffer supplemented with GDP at 2× final assay concentration (5 μM GDP) and dispensed into 96 well polypropylene, U-bottom Greiner plates. Then, 10 μL of compounds were added to assay plates and incubated for 10 min at room temperature. […] The binding reaction was incubated for 1 h at 37° C. Membranes in assay reactions were then transferred to GF/C filter plates (UniFilter, Perkin Elmer) and washed three times using a FilterMate Harvester (Perkin Elmer) with cold assay buffer containing no GDP. Filter plates were then dried at 40° C. overnight followed by the addition of 30 μL/well of Beta Plate Scintillation liquid. Plates were top and bottom sealed before being read on TopCount scintillation counter (Perkin Elmer, Waltham, MA).

EC50	Compound
> 500 nM	Cn1ncc2cc(C(Cc3cccnn3)c3c[nH]cn3)ccc21 (stereo not shown) [Compound 230, 5-[1-(4-imidazolyl)-2-(3-pyridazinyl)ethyl]-1-methyl-1H-indazole]
> 500 nM	FC(F)(F)c1ccc(C(Cc2cccnn2)c2c[nH]cn2)cc1 (stereo not shown) [Compound 223, 3-{2-(4-imidazolyl)-2-[p-(trifluoromethyl)phenyl]ethyl}pyridazine]
> 500 nM	CCOc1ccc(C(Cc2cccnn2)c2c[nH]cn2)cc1C(F)(F)F (stereo not shown) [Compound 226, 3-(2-[4-ethoxy-3-(trifluoromethyl)phenyl]-2-(4-imidazolyl)ethyl] pyridazine]
50 to 500 nM	COc1nccc(CC(c2c[nH]cn2)c2cccc3ncoc23)n1 (stereo not shown) [Compound 174, 7-[1-(4-imidazolyl)-2-(2-methoxy-4-pyrimidinyl)ethyl]-1,3-benzoxazole]
50 to 500 nM	COc1nccc(CC(c2c[nH]cn2)c2cccc3c2OCCCO3)n1 (stereo not shown) [Compound 355, 4-[2-(3,4-dihydro-2H-1,5-benzodioxepin-6-yl)-2-(4-imidazolyl)ethyl]-2-methoxypyrimidine]
10 to 50 nM	c1cnnc(C[C@@H](c2c[nH]cn2)c2cccc3c2OCC3)c1 (single isomer, unassigned) [Compound 362]
> 500 nM	Cc1ccc(C(F)(F)F)cc1C(Cc1cccnn1)c1c[nH]cn1 (stereo not shown) [Compound 221, 3-{2-(4-imidazolyl)-2-[5-(trifluoromethyl)-2-tolyl]ethyl}pyridazine]
50 to 500 nM	COc1nccc(CC(c2c[nH]cn2)c2cccc(C#N)c2F)n1 (stereo not shown) [Compound 177, 2-fluoro-3-[1-(4-imidazolyl)-2-(2-methoxy-4-pyrimidinyl)ethyl] benzonitrile]
10 to 50 nM	Cc1cnc(CC(c2c[nH]cn2)c2cccc3c2OCC3)s1 (stereo not shown) [Compound 279, 2-[2-(2,3-dihydro-1-benzofuran-7-yl)-2-(4-imidazolyl)ethyl]-5-methyl-1,3-thiazole]
> 500 nM	FC(F)(F)c1ccccc1C(Cc1cccnn1)c1c[nH]cn1 (stereo not shown) [Compound 166, 3-{2-(4-imidazolyl)-2-[o-(trifluoromethyl)phenyl]ethyl}pyridazine]
10 to 50 nM	COc1nccc(CC(c2c[nH]cn2)c2cccc(OC)c2C)n1 (stereo not shown) [Compound 178, 4-[2-(4-imidazolyl)-2-(3-methoxy-2-tolyl)ethyl]-2-methoxypyrimidine]

The remaining lines, values behind:

Compound	EC50
COc1cccc(C[C@@H](c2cnc[nH]2)c2cccc3c2COC3)n1 [Compound 12, 2-[(2R)-2-(1,3-dihydro-2-benzofuran-4-yl)-2-(1H-imidazol-4-yl)ethyl]-6-methoxypyridine]	> 500 nM
Cc1cccc(C(Cc2ncco2)c2c[nH]cn2)c1C (stereo not shown) [Compound 117, 2-[2-(4-imidazolyl)-2-(2,3-xylyl)ethyl]-1,3-oxazole]	50 to 500 nM
Cc1c(Cl)cccc1[C@@H](Cc1cccnc1)c1cnc[nH]1 [Compound 63, 3-[(2R)-2-(3-chloro-2-methylphenyl)-2-(1H-imidazol-4-yl)ethyl]pyridine]	< 10 nM
Cc1cccc([C@H](Cc2ccccn2)c2cnc[nH]2)c1Cl [Compound 47, 2-[(2S)-2-(2-chloro-3-methylphenyl)-2-(1H-imidazol-4-yl)ethyl] pyridine]	> 500 nM
Clc1ccc(C(Cc2cccnn2)c2c[nH]cn2)cc1 (stereo not shown) [Compound 217, 3-[2-(p-chlorophenyl)-2-(4-imidazolyl)ethyl] pyridazine]	> 500 nM
COc1ccccc1[C@@H](Cc1ccccn1)c1cnc[nH]1 [Compound 32, 2-[(2R)-2-(1H-imidazol-4-yl)-2-(2-methoxyphenyl)ethyl]pyridine]	> 500 nM
COc1cccc(C[C@@H](c2c[nH]cn2)c2cccc(OC)c2Cl)n1 [Compound 110, 4-[(R)-1-(2-chloro-3-methoxyphenyl)-2-(6-methoxy-2-pyridyl)ethyl] imidazole]	< 10 nM
Cc1cccc([C@H](Cc2ccnc(C(F)(F)F)n2)c2cnc[nH]2)c1C [Compound 72, 4-[(2S)-2-(2,3-dimethylphenyl)-2-(1H-imidazol-4-yl)ethyl]-2-(trifluoromethyl) pyrimidine]	< 10 nM
Cc1cccc(C(Cc2ccncn2)c2cnc[nH]2)c1C (stereo not shown) [Compound 92, 4-[2-(2,3-dimethylphenyl)-2-(1H-imidazol-4-yl)ethyl] pyrimidine]	10 to 50 nM
Cc1cccc([C@@H](Cc2cccnn2)c2c[nH]cn2)c1F [Compound 137, 3-[(R)-2-(2-fluoro-3-tolyl)-2-(4-imidazolyl)ethyl] pyridazine]	50 to 500 nM
Cc1ccnc(C[C@H](c2cnc[nH]2)c2cccc(C)c2C)n1 [Compound 78, 2-[(2S)-2-(2,3-dimethylphenyl)-2-(1H-imidazol-4-yl)ethyl]-4-methylpyrimidine]	> 500 nM
FC1(F)Oc2cccc([C@@H](Cc3ccccn3)c3c[nH]cn3)c2O1 [Compound 121, 4-[(R)-1-(4-imidazolyl)-2-(2-pyridyl)ethyl]-2,2-difluoro-2H-1,3-benzodioxole]	50 to 500 nM
COc1cccc(C[C@@H](c2cnc[nH]2)c2cccc(C)c2OC)n1 [Compound 10, 2-[(2R)-2-(1H-imidazol-4-yl)-2-(2-methoxy-3-methylphenyl)ethyl]-6-methoxypyridine]	> 500 nM
COc1cccc(C[C@@H](c2cnc[nH]2)c2cccc3c2CCO3)n1 [Compound 19, 2-[(2R)-2-(2,3-dihydro-1-benzofuran-4-yl)-2-(1H-imidazol-4-yl)ethyl]-6-methoxypyridine]	10 to 50 nM
Cc1nc(C[C@H](c2c[nH]cn2)c2cccc(C)c2C)cs1 [Compound 103, 4-[(S)-2-(4-imidazolyl)-2-(2,3-xylyl)ethyl]-2-methyl-1,3-thiazole]	> 500 nM
c1ccc(C[C@@H](c2cnc[nH]2)c2cccc3c2COC3)nc1 [Compound 46, 2-[(2R)-2-(1,3-dihydro-2-benzofuran-4-yl)-2-(1H-imidazol-4-yl)ethyl] pyridine]	> 500 nM
COc1ncc(C[C@H](c2c[nH]cn2)c2cccc(Cl)c2C)cn1 [Compound 109, 5-[(S)-2-(3-chloro-2-tolyl)-2-(4-imidazolyl)ethyl]-2-methoxy-pyrimidine]	< 10 nM
Cc1nccc(CC(c2c[nH]cn2)c2cccc3c2ccn3C)n1 (stereo not shown) [Compound 164, 4-[2-(4-imidazolyl)-2 (1-methyl-4-indolyl)ethyl]-2-methylpyrimidine]	< 10 nM
Cc1cccc([C@@H](Cc2ccn(C)n2)c2c[nH]cn2)c1C [Compound 105, 3-[(R)-2-(4-imidazolyl)-2-(2,3-xylyl)ethyl]-1-methylpyrazole]	> 500 nM
Cc1cccc(C(Cc2cscn2)c2c[nH]cn2)c1C (stereo not shown) [Compound 118, 4-[2-(4-imidazolyl)-2-(2,3-xylyl)ethyl]-1,3-thiazole]	10 to 50 nM
c1ccc(C[C@H](c2cnc[nH]2)c2cccc3c2COC3)nc1 [Compound 45, 2-[(2S)-2-(1,3-dihydro-2-benzofuran-4-yl)-2-(1H-imidazol-4-yl)ethyl] pyridine]	> 500 nM
Cc1cccc(C(Cc2cnccn2)c2cnc[nH]2)c1C (stereo not shown) [Compound 94, 2-[2-(2,3-dimethylphenyl)-2-(1H-imidazol-4-yl)ethyl] pyrazine]	50 to 500 nM
Cc1cccc([C@H](Cc2ccccn2)c2cnc[nH]2)c1F [Compound 39, 2-[(2S)-2-(2-fluoro-3-methylphenyl)-2-(1H-imidazol-4-yl)ethyl] pyridine]	> 500 nM
